Test results as given in BindingDB's records for doi:10.1016/j.bioorg.2009.09.001 (University of Ljubljana, 2009).

Key:
Test in all cases: Enzymatic Assay
Conditions in all cases: pH 8; 37 °C
[1] = biological target: T1, UDP-N-acetylmuramoyl-tripeptide--D-alanyl-D-alanine ligase (Escherichia coli (strain K12), UniProt P11880)
T1 sequence (P11880 whole entry): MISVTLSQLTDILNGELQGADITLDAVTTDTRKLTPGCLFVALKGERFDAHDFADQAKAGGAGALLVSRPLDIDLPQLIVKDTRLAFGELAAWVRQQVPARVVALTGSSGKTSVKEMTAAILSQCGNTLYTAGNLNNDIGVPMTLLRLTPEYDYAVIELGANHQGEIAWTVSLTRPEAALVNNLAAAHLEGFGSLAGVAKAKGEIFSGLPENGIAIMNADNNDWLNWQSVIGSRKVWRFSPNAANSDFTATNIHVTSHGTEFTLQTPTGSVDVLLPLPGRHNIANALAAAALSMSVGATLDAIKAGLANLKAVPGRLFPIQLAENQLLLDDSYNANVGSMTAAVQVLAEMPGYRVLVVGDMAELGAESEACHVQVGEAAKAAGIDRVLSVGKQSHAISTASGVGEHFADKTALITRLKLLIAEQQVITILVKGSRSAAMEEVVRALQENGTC
Description: (§1) Compounds were tested for their inhibition of the addition of L-Ala, D-Glu, L-Lys or D-Ala-D-Ala to nucleotide precursors catalyzed by MurC from Escherichia coli, MurD from E. coli, MurE from Staphylococcus aureus, and MurF from E coli. The detection of the orthophosphate generated during the reaction was based on the colorimetric Malachite green method.

[2] = biological target: UDP-N-acetylmuramate--L-alanine ligase (Escherichia coli (strain K12), UniProt P17952)
Description: as §1

[3] = biological target: T2, UDP-N-acetylmuramoyl-L-alanyl-D-glutamate--L-lysine ligase (Staphylococcus aureus (strain NCTC 8325 / PS 47), UniProt Q2FZP6)
T2 sequence (Q2FZP6 whole entry): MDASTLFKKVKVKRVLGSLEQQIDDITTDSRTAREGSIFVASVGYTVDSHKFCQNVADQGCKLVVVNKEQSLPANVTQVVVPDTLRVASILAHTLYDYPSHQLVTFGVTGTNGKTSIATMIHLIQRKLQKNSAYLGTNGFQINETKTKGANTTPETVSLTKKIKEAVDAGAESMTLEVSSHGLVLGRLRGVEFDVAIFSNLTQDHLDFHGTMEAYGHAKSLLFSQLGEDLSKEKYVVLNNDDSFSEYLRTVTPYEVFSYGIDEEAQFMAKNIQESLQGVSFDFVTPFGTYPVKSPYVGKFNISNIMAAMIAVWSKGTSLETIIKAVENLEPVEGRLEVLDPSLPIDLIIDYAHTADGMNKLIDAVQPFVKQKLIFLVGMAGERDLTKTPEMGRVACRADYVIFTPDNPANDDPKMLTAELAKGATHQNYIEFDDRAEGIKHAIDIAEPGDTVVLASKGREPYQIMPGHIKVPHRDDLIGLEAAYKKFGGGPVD
Description: as §1

Chain of UDP-N-acetylmuramate--L-alanine ligase (P17952 whole entry): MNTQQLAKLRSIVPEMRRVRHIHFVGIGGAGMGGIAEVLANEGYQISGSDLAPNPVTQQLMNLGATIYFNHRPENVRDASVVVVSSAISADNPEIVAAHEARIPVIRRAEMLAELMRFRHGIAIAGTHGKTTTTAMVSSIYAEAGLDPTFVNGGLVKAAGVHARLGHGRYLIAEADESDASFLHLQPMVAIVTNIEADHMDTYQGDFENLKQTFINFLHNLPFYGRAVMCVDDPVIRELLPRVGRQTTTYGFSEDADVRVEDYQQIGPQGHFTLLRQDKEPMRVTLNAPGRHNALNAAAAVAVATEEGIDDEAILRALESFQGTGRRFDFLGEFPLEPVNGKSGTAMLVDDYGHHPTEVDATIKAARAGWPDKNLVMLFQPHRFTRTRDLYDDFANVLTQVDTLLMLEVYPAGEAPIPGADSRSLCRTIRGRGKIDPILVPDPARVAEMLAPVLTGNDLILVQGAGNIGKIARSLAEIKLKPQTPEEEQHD

| Structure (SMILES) | IC50 [1] | IC50 [2] | IC50 [3] |
| --- | --- | --- | --- |
| COc1ccc(S(=O)(=O)NCC(CN2CCOCC2)OP(=O)(O)O)cc1 (stereo not drawn) | 530 µM | 490 µM | 6 µM |
| O=P(O)(O)OC(CNS(=O)(=O)c1ccc(F)cc1)CN1CCOCC1 (stereo not drawn) [HEA derivative, 7b] | 270 µM | 790 µM | 120 µM |
| O=P(O)(O)OC(CNS(=O)(=O)c1cccc(C(F)(F)F)c1)CN1CCOCC1 (stereo not drawn) [HEA derivative, 7d] | 150 µM | 530 µM | 160 µM |
| Cc1ccc(S(=O)(=O)NCC(CN2CCOCC2)OP(=O)(O)O)cc1 (stereo not drawn) [HEA derivative, 7e] | 560 µM | 540 µM | 120 µM |
| CCc1ccc(S(=O)(=O)NCC(CN2CCOCC2)OP(=O)(O)O)cc1 (stereo not drawn) [HEA derivative, 7f] | 360 µM | 760 µM | 61 µM |
| O=P(O)(O)OC(CNS(=O)(=O)c1ccc(C(F)(F)F)cc1)CN1CCOCC1 (stereo not drawn) [MurC/D/E/F inhibitor (compound 68)] | 240 µM | 200 µM | 57 µM |
